Experimental data reported in patent publication US20120244567A1, “HUMAN EMBRYONIC STEM CELLS FOR HIGH THROUGHOUT DRUG SCREENING” (BUCK INSTITUTE FOR RESEARCH ON AGING, priority 2009, published 2012).
Counter-ions that a name gives are not always drawn.

Test system: NSCs
Procedure: RNAs isolated from NSCs and neurons with and without drug treatments were hybridized to Illumina HumanRef-8 BeadChip (Illumina, Inc., San Diego, Calif., performed by Microarray core facility at the Burnham Institute for Medical Research). The Illumina array data were normalized by the quantile method, and then transformed log 2 ratio values for a zero mean for expression values of each gene across all samples. The statistical and bioinformatics analyses were conducted by using R and the bioconductor package (www.bioconductor.org). The gene set enrichment analysis was conducted using the GSEA software (www.broad.mit.edu/gsea).
The comparative results are then measured by a non-parametric, running sum statistic termed the enrichment score. The enrichment score significance is assessed by 1,000 permutation tests to compute the enrichment p-value.

## CCCCc1oc2ccccc2c1C(=O)c1cc(I)c(OCCN(CC)CC)c(I)c1 [Amiodarone Hydrochloride]
Enriched In Untreated Nscs
  Nes: Acetyltransferase Activity: −1.239
  Nes: Amine Transmembrane Transporter Activity: −0.9002
  Nes: Amino Acid Transmembrane Transporter Activity: −0.9455
  Nes: Atp Dependent Helicase Activity: −1.499
  Nes: Atp Dependent Rna Helicase Activity: −1.626
  Nes: Atpase Activity: −0.8253
  Nes: Atpase Activity Coupled: −1.068
  Nes: Atpase Activity Coupled To Movement Of Substances: −0.3743
  Nes: Atpase Activity Coupled To Transmembrane Movement Of Ions: −0.543
  Nes: Calcium Ion Binding: −1.593
  Nes: Carbohydrate Binding: −0.9729
  Nes: Carboxylic Acid Transmembrane Transporter Activity: −0.8373
  Nes: Cation Binding: −1.033
  Nes: Chromatin Binding: −1.015
  Nes: Cofactor Binding: −0.9326
  Nes: Cytokine Activity: −1.381
  Nes: Cytokine Binding: −1.174
  Nes: Damaged Dna Binding: −1.1681
  Nes: Dna Dependent Atpase Activity: −1.2
  Nes: Dna Helicase Activity: −0.5542
  Nes: Double Stranded Dna Binding: −0.4584
  Nes: Electron Carrier Activity: −0.6307
  Nes: Enzyme Activator Activity: −1.024
  Nes: Exopeptidase Activity: −0.915
  Nes: Glycosaminoglycan Binding: −0.9127
  Nes: Growth Factor Activity: −1.254
  Nes: Gtp Binding: −0.9695
  Nes: Gtpase Activity: −0.811
  Nes: Guanyl Nucleotide Binding: −1.265
  Nes: Helicase Activity: −1.374
  Nes: Heparin Binding: −1.015
  Nes: Hormone Activity: −1.196
  Nes: Hydrogen Ion Transmembrane Transporter Activity: −1.077
  Nes: Hydrolase Activity Acting On Acid Anhydrides: −0.9907
  Nes: Hydrolase Activity Acting On Acid Anhydrides Catalyzing Transmembrane Movement Of Substances: −0.4097
  Nes: Hydrolase Activity Acting On Carbon Nitrogen But Not Peptide Bonds: −0.7823
  Nes: Ion Binding: −1.044
  Nes: Kinase Activity: −0.9611
  Nes: Kinase Inhibitor Activity: −0.8002
  Nes: Kinase Regulator Activity: −0.9286
  Nes: Lipase Activity: −1.055
  Nes: Lipid Binding: −1.147
  Nes: Magnesium Ion Binding: −1.1144
  Nes: Metallopeptidase Activity: −1.06
  Nes: Microtubule Binding: −0.7143
  Nes: N Acetyltransferase Activity: −1.282
  Nes: N Acyltransferase Activity: −1.201
  Nes: Nucleobase Nucleoside Nucleotide Kinase Activity: −1.417
  Nes: Nucleoside Triphosphatase Activity: −0.8995
  Nes: Nucleotidyltransferase Activity: −0.6782
  Nes: Organic Acid Transmembrane Transporter Activity: −0.8193
  Nes: Oxidoreductase Activity Acting On Nadh Or Nadph: −1.092
  Nes: Oxidoreductase Activity Acting On The Ch Ch Group Of Donors: −1.2992
  Nes: Pattern Binding: −0.8999
  Nes: Peptide Binding: −0.9386
  Nes: Phospholipid Binding: −1.255
  Nes: Phosphotransferase Activity Alcohol Group As Acceptor: −0.929
  Nes: Phosphotransferase Activity Phosphate Group As Acceptor: −1.665
  Nes: Polysaccharide Binding: −0.9675
  Nes: Primary Active Transmembrane Transporter Activity: −0.3858
  Nes: Protein Dimerization Activity: −1.017
  Nes: Protein Heterodimerization Activity: −1.3399
  Nes: Protein Homodimerization Activity: −0.801
  Nes: Protein Kinase Inhibitor Activity: −0.7805
  Nes: Protein Kinase Regulator Activity: −0.8809
  Nes: Protein N Terminus Binding: −0.5542
  Nes: Pyrophosphatase Activity: −1.053
  Nes: Ras Gtpase Binding: −0.9567
  Nes: Receptor Activity: −1.044
  Nes: Receptor Binding: −1.0604
  Nes: Receptor Signaling Protein Serine Threonine Kinase Activity: −0.7954
  Nes: Rhodopsin Like Receptor Activity: −1.049
  Nes: Rna Binding: −0.6659
  Nes: Rna Dependent Atpase Activity: −1.8058
  Nes: Rna Helicase Activity: −1.68
  Nes: Signal Sequence Binding: −0.8286
  Nes: Structural Constituent Of Ribosome: −0.6343
  Nes: Transferase Activity Transferring Acyl Groups: −0.9146
  Nes: Transferase Activity Transferring Hexosyl Groups: −0.8814
  Nes: Transferase Activity Transferring Phosphorus Containing Groups: −1.002
  Nes: Transmembrane Receptor Activity: −1.132
  Nes: Tubulin Binding: −1.169
  Nes: Udp Glycosyltransferase Activity: −0.9459
Enriched in treated NSCs
  Nes: Acid Amino Acid Ligase Activity: 0.7777
  Nes: Actin Binding: 0.7455
  Nes: Actin Filament Binding: 1.029
  Nes: Active Transmembrane Transporter Activity: 0.8495
  Nes: Adenyl Nucleotide Binding: 0.9485
  Nes: Adenyl Ribonucleotide Binding: 0.9696
  Nes: Anion Transmembrane Transporter Activity: 1.216
  Nes: Atp Binding: 0.8813
  Nes: Calmodulin Binding: 0.7204
  Nes: Carbon Oxygen Lyase Activity: 0.4048
  Nes: Cation Channel Activity: 0.9023
  Nes: Cation Transmembrane Transporter Activity: 1.013
  Nes: Cysteine Type Endopeptidase Activity: 1.621
  Nes: Cysteine Type Peptidase Activity: 1.575
  Nes: Deoxyribonuclease Activity: 1.357
  Nes: Endonuclease Activity: 0.5289
